Source: BindingDB's records for doi:10.7270/Q20K2778 (The Scripps Research Institute Molecular Screening Center, 2013)

Target: Methyl-CpG-binding domain protein 2 (Homo sapiens, UniProt Q9UBB5)
Assay: inhibitors of MBD2 binding to methylated DNA, dose response, biochemical, 5-meCpG oligonucleotide (AID 720645)

Chain of Methyl-CpG-binding domain protein 2 (Q9UBB5 whole entry, the tested form may be a part): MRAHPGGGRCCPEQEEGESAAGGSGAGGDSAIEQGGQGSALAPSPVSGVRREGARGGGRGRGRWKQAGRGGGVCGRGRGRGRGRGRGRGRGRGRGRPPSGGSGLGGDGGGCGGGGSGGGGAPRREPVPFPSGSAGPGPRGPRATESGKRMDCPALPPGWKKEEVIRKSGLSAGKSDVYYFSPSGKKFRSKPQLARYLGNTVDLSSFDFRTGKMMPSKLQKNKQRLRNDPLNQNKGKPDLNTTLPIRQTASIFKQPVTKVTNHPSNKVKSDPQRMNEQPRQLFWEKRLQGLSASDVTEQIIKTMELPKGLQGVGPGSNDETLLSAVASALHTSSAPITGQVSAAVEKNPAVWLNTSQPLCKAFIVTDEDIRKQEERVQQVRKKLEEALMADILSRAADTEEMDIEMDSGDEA

IC50 | Compound
4.78 µM | COc1ccc(-c2csc(/C(C#N)=C/C3C=CC(=O)C([N+](=O)[O-])=C3)n2)cc1OC (centres undefined) [(E)-2-[4-(3,4-Dimethoxy-phenyl)-thiazol-2-yl]-3-(4-hydroxy-3-nitro-phenyl)-acrylonitrile]
4.87 µM | O=C(O)CSc1cc(NS(=O)(=O)c2ccc(Cl)cc2)c2ccccc2c1O [2-[4-[(4-chlorophenyl)sulfonylamino]-1-hydroxynaphthalen-2-yl]sulfanylacetic acid]
43.8 µM | COc1cc(C(c2c(C)[nH][nH]c2=O)c2c(C)[nH][nH]c2=O)cc([N+](=O)[O-])c1O [4-[(3-methoxy-5-nitro-4-oxidanyl-phenyl)-(3-methyl-5-oxidanylidene-1,2-dihydropyrazol-4-yl)methyl]-5-methyl-1,2-dihydropyrazol-3-one]
8.02 µM | Cc1ccc2c(Cl)c(Cc3ccccc3)c(=S)[nH]c2n1 [MLS001182542]
